Test systems include A549 NSCLC; DU-145 prostate; K-562 leukemia; MCF7 breast; NCI-H23 lung; OVCAR-8 ovarian; SF-268 CNS; SK-OV-3 ovarian; SW-620 colon; UO-31 renal.
What all share (assay): NCI anticancer screen, dose series, 48 h

“And” between values parts separate entries of the source, which are not always exact repeats. Identical values can stand only once.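 Five compound concentrations were applied to cells in 96-well plates for 48 hours; endpoints were derived by simple linear interpolation of the resulting dose-response curve. Abbreviation: GI50, concentration required for 50% inhibition of growth. TGI: total growth inhibition.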 Where only a bound is given, the exact number is not on record here.

For the molecule `CN1CCN(c2cc(Nc3cc(C4CC4)[nH]n3)nc(Nc3ccc(CC(=O)NCc4cccc(F)c4)cc3)n2)CC1`, the GI50 in the assay with A549 NSCLC was 0.77 µM; in the assay with DU-145 prostate it was 2.03 µM; in the assay on K-562 leukemia it was 0.423 µM; with MCF7 breast, 0.108 µM; with NCI-H23 lung, 1.05 µM; in the assay on OVCAR-8 ovarian, 2.18 µM. The GI50 in the assay with SF-268 CNS was 1.23 µM; with SK-OV-3 ovarian, 0.932 µM; in the assay with SW-620 colon, 0.12 µM; in the assay with UO-31 renal, 1.69 µM. For the same molecule, the TGI worked out at 11.3 µM with A549 NSCLC; 11.5 µM with DU-145 prostate; 11.6 µM in the assay with K-562 leukemia; 2.05 µM with MCF7 breast; 9.74 µM with NCI-H23 lung; 30.1 µM in the assay with OVCAR-8 ovarian. Besides, the TGI with SF-268 CNS turned out to be 12.3 µM; in the assay on SK-OV-3 ovarian, 12.9 µM; with SW-620 colon, 2.72 µM; in the assay with UO-31 renal, 4.73 µM.
Turning to `Cc1nc2ccc(NCCN(C)C)c3c(=O)c4cc(O)ccc4n1c23`, the TGI is 3.39 µM in the assay with A549 NSCLC; 4.93 µM in the assay with DU-145 prostate; 4.25 µM in the assay on K-562 leukemia; 11.5 µM in the assay on MCF7 breast; 2.05 µM in the assay with NCI-H23 lung; 2.37 µM with OVCAR-8 ovarian. Moreover, the TGI came out at 5.43 µM in the assay with SF-268 CNS, 8.98 µM in the assay with SK-OV-3 ovarian, 4.53 µM with SW-620 colon and 9.14 µM with UO-31 renal.
`COc1cccc2c1C(=O)c1c(O)c3c(c(O)c1C2=O)C[C@@](O)(/C(C)=N\O)C[C@@H]3OC1CC(N)C(O)C(C)O1` (some centres not stated): the TGI is 6.22 µM in the assay with A549 NSCLC; 5.74 µM in the assay with DU-145 prostate; 7.72 µM with K-562 leukemia; 9.97 µM in the assay on MCF7 breast; 3.8 µM in the assay on NCI-H23 lung; 11.8 µM with OVCAR-8 ovarian. Further, the TGI with SF-268 CNS was found to be 5.77 µM; in the assay with SK-OV-3 ovarian it was 11.7 µM; with SW-620 colon, 10.3 µM; in the assay on UO-31 renal, 49.2 µM.
On to `CC(C)c1ccc(O)c(=O)cc1`, for which the GI50 in the assay with A549 NSCLC is 4.69 µM; with DU-145 prostate, 9.43 µM; in the assay with K-562 leukemia it was 3.63 µM; with MCF7 breast, 5.08 µM; with NCI-H23 lung, 17.2 µM; with OVCAR-8 ovarian, 3.54 µM. The results for the GI50 in the assay on SF-268 CNS, in the assay with SW-620 colon and in the assay with UO-31 renal were 7.43 µM, 6.15 µM and 6.31 µM, respectively. Besides, the TGI is more than 71.4 µM in the assay with A549 NSCLC; > 53.1 µM and 14.6 µM with K-562 leukemia; more than 74 µM with NCI-H23 lung; more than 100 µM in the assay with OVCAR-8 ovarian; more than 62.1 µM in the assay with SF-268 CNS; more than 100 µM with SK-OV-3 ovarian. In addition, the TGI with SW-620 colon was more than 100 µM; in the assay with UO-31 renal it was 35.7 µM and 71.7 µM.
As to `CN(C)CCCC(=O)Nc1ccc(Cn2nnc3c2C(=O)c2nnn(Cc4ccc(NC(=O)CCCN(C)C)cc4)c2C3=O)cc1`, the GI50 with A549 NSCLC is 16.8 µM; in the assay with DU-145 prostate it was 3.48 µM; in the assay with K-562 leukemia, 5.45 µM; in the assay on MCF7 breast, 1.45 µM; in the assay with NCI-H23 lung, 2.13 µM; with OVCAR-8 ovarian it was 5.25 µM. Besides, the GI50 was 3.29 µM with SF-268 CNS, 20.9 µM in the assay with SK-OV-3 ovarian, 3.43 µM in the assay with SW-620 colon and more than 100 µM in the assay with UO-31 renal. Moreover, the TGI came to 39.2 µM in the assay with A549 NSCLC; 10.6 µM in the assay with DU-145 prostate; 55.9 µM in the assay on K-562 leukemia; 3.52 µM with MCF7 breast; 5.01 µM in the assay with NCI-H23 lung; 29.3 µM in the assay on OVCAR-8 ovarian. Further, the TGI is 12.8 µM in the assay on SF-268 CNS, 49 µM in the assay on SK-OV-3 ovarian, 12.2 µM in the assay on SW-620 colon and more than 100 µM in the assay on UO-31 renal.
Turning to `O=C1C(=O)c2c(nc3ncccn23)-c2ccccc21`, the GI50 with A549 NSCLC is 0.23 µM; in the assay with DU-145 prostate it was 0.181 µM; in the assay with K-562 leukemia, 0.219 µM; in the assay with MCF7 breast, 0.179 µM; in the assay with NCI-H23 lung, 0.193 µM; with OVCAR-8 ovarian, 0.306 µM. Moreover, the GI50 in the assay with SF-268 CNS was 0.339 µM; with SK-OV-3 ovarian it was 1.08 µM; in the assay with SW-620 colon, 0.214 µM; in the assay with UO-31 renal, 0.187 µM. The TGI in the assay on A549 NSCLC turned out to be 0.516 µM; in the assay with DU-145 prostate it was 0.336 µM; in the assay with K-562 leukemia it was 2.75 µM; in the assay on MCF7 breast, 0.406 µM; with NCI-H23 lung, 0.432 µM; in the assay with OVCAR-8 ovarian, 1.27 µM. The TGI in the assay on SF-268 CNS came to 1.13 µM; with SK-OV-3 ovarian it was 2.52 µM; in the assay with SW-620 colon, 0.461 µM; with UO-31 renal it was 0.405 µM.
Regarding `COc1cc(/C=C/C(=O)c2cc(OC)c(OC)c(OC)c2)cc(OC)c1OC`, the GI50 with A549 NSCLC was 3.74 µM; with DU-145 prostate it was 2.03 µM; in the assay on K-562 leukemia, 2.46 µM; with MCF7 breast it was 3.05 µM; in the assay with NCI-H23 lung, 3.15 µM; with OVCAR-8 ovarian, 3.49 µM. Moreover, the GI50 in the assay with SF-268 CNS is 2.77 µM; in the assay with SK-OV-3 ovarian, 11.5 µM; with SW-620 colon it was 2.18 µM; with UO-31 renal, 2.05 µM. The TGI in the assay with A549 NSCLC is 46.1 µM; in the assay with DU-145 prostate, 5.95 µM; with K-562 leukemia it was more than 100 µM; in the assay with MCF7 breast it was 15.3 µM; in the assay on NCI-H23 lung, 13.7 µM; with OVCAR-8 ovarian it was more than 100 µM. For the same molecule, the TGI with SF-268 CNS is 10 µM; in the assay on SK-OV-3 ovarian it was more than 100 µM; with SW-620 colon it was 5.67 µM; in the assay on UO-31 renal, 12.1 µM.
In the case of `Cc1[nH]nc(C(=O)Nc2n[nH]c3ccccc23)c1[N+](=O)[O-]`, the GI50 with A549 NSCLC was more than 66.6 µM; with DU-145 prostate, more than 79.7 µM; in the assay with K-562 leukemia, more than 100 µM; in the assay on MCF7 breast, 53.3 µM; in the assay on NCI-H23 lung, more than 66.9 µM; in the assay on OVCAR-8 ovarian, more than 100 µM. Further, the GI50 in the assay with SF-268 CNS, in the assay with SK-OV-3 ovarian, with SW-620 colon and in the assay on UO-31 renal was more than 100 µM each time. Further, the TGI in the assay on A549 NSCLC, with DU-145 prostate, with K-562 leukemia, in the assay on MCF7 breast, with NCI-H23 lung and with OVCAR-8 ovarian was more than 100 µM in each case. In addition, the TGI with SF-268 CNS, in the assay on SK-OV-3 ovarian, in the assay on SW-620 colon and in the assay with UO-31 renal was more than 100 µM each time.
For `Cc1ccc(-n2c(-c3ccc(Cl)cc3)cs/c2=N\NC(=O)COc2n[nH]c(=O)c3ccccc23)cc1`, the GI50 in the assay with A549 NSCLC was more than 100 µM; in the assay with DU-145 prostate, more than 100 µM; in the assay with K-562 leukemia, more than 100 µM; in the assay with MCF7 breast, 70.7 µM; in the assay on NCI-H23 lung it was 34.1 µM; in the assay on OVCAR-8 ovarian, 16.6 µM. Also, the GI50 in the assay with SF-268 CNS was 32.9 µM; with SK-OV-3 ovarian, 57.9 µM; with SW-620 colon, more than 100 µM; in the assay on UO-31 renal, more than 100 µM. Besides, the TGI in the assay on A549 NSCLC, in the assay on DU-145 prostate, in the assay on K-562 leukemia, in the assay on MCF7 breast, in the assay with NCI-H23 lung and in the assay with OVCAR-8 ovarian was more than 100 µM each time. Further, the TGI with SF-268 CNS, in the assay with SK-OV-3 ovarian, in the assay on SW-620 colon and in the assay with UO-31 renal was more than 100 µM in each case.
With `C=C1C(=O)O[C@H]2[C@H]1CC/C(COC(=O)C(=O)c1cn(C)c3ccc(OC)cc13)=C\CC[C@@]1(C)O[C@@H]21`, the GI50 is 7.61 µM in the assay with A549 NSCLC; 6.67 µM in the assay on DU-145 prostate; 5.97 µM in the assay on K-562 leukemia; 2.8 µM in the assay with MCF7 breast; 6.44 µM with NCI-H23 lung; 6.76 µM in the assay with OVCAR-8 ovarian. Further, the GI50 in the assay on SF-268 CNS is 5.71 µM; in the assay on SK-OV-3 ovarian, 13.6 µM; in the assay on SW-620 colon, 3.53 µM; in the assay with UO-31 renal, 2.42 µM. The TGI is 14.2 µM in the assay with A549 NSCLC; 15.5 µM in the assay with DU-145 prostate; more than 61.3 µM in the assay with K-562 leukemia; 16.4 µM with MCF7 breast; 12.4 µM in the assay on NCI-H23 lung; 20.4 µM with OVCAR-8 ovarian. Moreover, the TGI was determined as 12.5 µM with SF-268 CNS, 29.3 µM in the assay with SK-OV-3 ovarian, 14.5 µM in the assay on SW-620 colon and 6.02 µM in the assay with UO-31 renal.
Take `O=C(CC(=O)c1ccccc1NC1=Cc2ccccc2C(=O)C1=O)C(=O)NC1=C(Cl)C(=O)c2ccccc2C1=O`: the TGI with A549 NSCLC was 16.5 µM; with DU-145 prostate, 16.1 µM; in the assay with K-562 leukemia, 9.7 µM; in the assay on MCF7 breast it was 7.32 µM; in the assay with NCI-H23 lung, 6.25 µM; in the assay with OVCAR-8 ovarian, 12.2 µM. Further, the TGI in the assay with SF-268 CNS was 11.8 µM; in the assay on SK-OV-3 ovarian, more than 83.8 µM; in the assay on SW-620 colon, 7.98 µM; in the assay with UO-31 renal, 20.4 µM.
On to `Nc1nc(Nc2ccc3c(c2)CCC(N2CCCC2)CC3)nn1-c1cc2c(nn1)-c1ccccc1CCC2` (configuration not stated), for which the GI50 in the assay with A549 NSCLC is 1.32 µM; with DU-145 prostate it was 1.04 µM; in the assay with K-562 leukemia, 0.701 µM; with MCF7 breast it was 1.35 µM; in the assay on NCI-H23 lung, 1.71 µM; in the assay with OVCAR-8 ovarian, 1.14 µM. Moreover, the GI50 with SF-268 CNS was 1.25 µM; in the assay with SK-OV-3 ovarian, 0.895 µM; with SW-620 colon, 1.31 µM; with UO-31 renal it was 0.668 µM. Besides, the TGI in the assay on A549 NSCLC came to 2.92 µM; in the assay on DU-145 prostate, 2.36 µM; in the assay with K-562 leukemia, 2.48 µM; in the assay with MCF7 breast, 2.79 µM; in the assay on NCI-H23 lung, 3.72 µM; with OVCAR-8 ovarian, 2.85 µM. Further, the TGI with SF-268 CNS was 3.07 µM; in the assay with SK-OV-3 ovarian, 2.22 µM; in the assay with SW-620 colon, 3.17 µM; in the assay with UO-31 renal, 2.13 µM.

Values taken from PubChem BioAssay (NCI).
